Assays:
Format in all cases: cell-based
[1] = target: proteins of U3A human fibrosarcoma cells (4462 proteins detected) (Homo sapiens, UniProt Q03252); conditions: protein LMNB2; U3A cells
[2] = target: proteins of U3A human fibrosarcoma cells (4462 proteins detected) (Homo sapiens, UniProt P54920); conditions: protein NAPA; soluble abundance after heat, U3A cells
[3] = target: proteins of U3A human fibrosarcoma cells (4462 proteins detected) (Homo sapiens, UniProt P13473); conditions: protein LAMP2; soluble abundance after heat, U3A cells
[4] = target: proteins of U3A human fibrosarcoma cells (4462 proteins detected) (Homo sapiens, UniProt O75792); conditions: protein RNASEH2A; U3A cells
[5] = target: proteins of U3A human fibrosarcoma cells (4462 proteins detected) (Homo sapiens, UniProt Q9NPF4); conditions: protein OSGEP; soluble abundance after heat, U3A cells
[6] = target: proteins of U3A human fibrosarcoma cells (4462 proteins detected) (Homo sapiens, UniProt Q8TF74); conditions: protein WIPF2, U3A cells
[7] = target: proteins of U3A human fibrosarcoma cells (4462 proteins detected) (Homo sapiens, UniProt Q8NFQ8); conditions: protein TOR1AIP2; U3A cells
[8] = target: proteins of U3A human fibrosarcoma cells (4462 proteins detected) (Homo sapiens, UniProt P11182); conditions: protein DBT; U3A cells
[9] = target: proteins of U3A human fibrosarcoma cells (4462 proteins detected) (Homo sapiens, UniProt Q8NB16); conditions: protein MLKL; U3A, 10 μM, 2 h
[10] = target: proteins of U3A human fibrosarcoma cells (4462 proteins detected) (Homo sapiens, UniProt Q8NDC0); conditions: protein MAPK1IP1L; U3A cells
[11] = target: proteins of U3A human fibrosarcoma cells (4462 proteins detected) (Homo sapiens, UniProt Q4VC31); conditions: protein CCDC58; U3A cells
[12] = target: proteins of U3A human fibrosarcoma cells (4462 proteins detected) (Homo sapiens, UniProt P49459); conditions: protein UBE2A, U3A cells
[13] = target: proteins of U3A human fibrosarcoma cells (4462 proteins detected) (Homo sapiens, UniProt P49915); conditions: protein GMPS; soluble abundance after heat, U3A cells
[14] = target: proteins of U3A human fibrosarcoma cells (4462 proteins detected) (Homo sapiens, UniProt Q16576); conditions: protein RBBP7; soluble abundance after heat, U3A cells
[15] = target: proteins of U3A human fibrosarcoma cells (4462 proteins detected) (Homo sapiens, UniProt P82933); conditions: protein MRPS9; soluble abundance after heat, U3A cells
[16] = target: proteins of U3A human fibrosarcoma cells (4462 proteins detected) (Homo sapiens, UniProt Q7Z6B0); conditions: protein CCDC91, U3A cells
[17] = target: proteins of U3A human fibrosarcoma cells (4462 proteins detected) (Homo sapiens, UniProt Q9H7X7); conditions: protein IFT22; U3A, 10 μM, 2 h
[18] = target: proteins of U3A human fibrosarcoma cells (4462 proteins detected) (Homo sapiens, UniProt Q9UL15); conditions: protein BAG5; U3A cells
[19] = target: proteins of U3A human fibrosarcoma cells (4462 proteins detected) (Homo sapiens, UniProt Q9NX08); conditions: protein COMMD8; soluble abundance after heat, U3A cells
[20] = target: proteins of U3A human fibrosarcoma cells (4462 proteins detected) (Homo sapiens, UniProt Q15051); conditions: protein IQCB1; U3A, 10 μM, 2 h
[21] = target: proteins of U3A human fibrosarcoma cells (4462 proteins detected) (Homo sapiens, UniProt Q12874); conditions: protein SF3A3; U3A cells
[22] = target: proteins of U3A human fibrosarcoma cells (4462 proteins detected) (Homo sapiens, UniProt Q9BXS5); conditions: protein AP1M1; U3A cells
[23] = target: proteins of U3A human fibrosarcoma cells (4462 proteins detected) (Homo sapiens, UniProt P48643); conditions: protein CCT5; U3A cells
[24] = target: proteins of U3A human fibrosarcoma cells (4462 proteins detected) (Homo sapiens, UniProt P05121); conditions: protein SERPINE1; U3A cells
[25] = target: proteins of U3A human fibrosarcoma cells (4462 proteins detected) (Homo sapiens, UniProt Q8IY18); conditions: protein SMC5; U3A, 10 μM, 2 h
[26] = target: proteins of U3A human fibrosarcoma cells (4462 proteins detected) (Homo sapiens, UniProt Q13641); conditions: protein TPBG; soluble abundance after heat, U3A cells
[27] = target: proteins of U3A human fibrosarcoma cells (4462 proteins detected) (Homo sapiens, UniProt O15294); conditions: protein OGT; U3A cells
[28] = target: proteins of U3A human fibrosarcoma cells (4462 proteins detected) (Homo sapiens, UniProt Q9UIJ7); conditions: protein AK3; U3A cells
[29] = target: proteins of U3A human fibrosarcoma cells (4462 proteins detected) (Homo sapiens, UniProt Q9Y6E0); conditions: protein STK24; soluble abundance after heat, U3A cells
Sequence of proteins of U3A human fibrosarcoma cells (4462 proteins detected) (Homo sapiens, UniProt Q9Y6E0) (Q9Y6E0 whole entry): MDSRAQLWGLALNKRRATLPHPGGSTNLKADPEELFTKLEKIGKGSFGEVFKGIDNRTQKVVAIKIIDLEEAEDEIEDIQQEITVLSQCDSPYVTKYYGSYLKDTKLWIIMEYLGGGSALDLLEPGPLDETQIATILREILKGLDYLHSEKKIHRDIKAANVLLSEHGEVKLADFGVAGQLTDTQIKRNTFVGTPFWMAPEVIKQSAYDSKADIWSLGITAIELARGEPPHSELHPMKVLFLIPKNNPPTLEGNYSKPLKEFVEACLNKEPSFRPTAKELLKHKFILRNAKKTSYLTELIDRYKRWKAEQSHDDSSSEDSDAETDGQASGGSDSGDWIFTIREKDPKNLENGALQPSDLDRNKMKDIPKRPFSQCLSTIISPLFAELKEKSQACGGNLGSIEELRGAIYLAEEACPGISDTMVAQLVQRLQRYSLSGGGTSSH

Sequence of proteins of U3A human fibrosarcoma cells (4462 proteins detected) (Homo sapiens, UniProt O15294) (O15294 whole entry): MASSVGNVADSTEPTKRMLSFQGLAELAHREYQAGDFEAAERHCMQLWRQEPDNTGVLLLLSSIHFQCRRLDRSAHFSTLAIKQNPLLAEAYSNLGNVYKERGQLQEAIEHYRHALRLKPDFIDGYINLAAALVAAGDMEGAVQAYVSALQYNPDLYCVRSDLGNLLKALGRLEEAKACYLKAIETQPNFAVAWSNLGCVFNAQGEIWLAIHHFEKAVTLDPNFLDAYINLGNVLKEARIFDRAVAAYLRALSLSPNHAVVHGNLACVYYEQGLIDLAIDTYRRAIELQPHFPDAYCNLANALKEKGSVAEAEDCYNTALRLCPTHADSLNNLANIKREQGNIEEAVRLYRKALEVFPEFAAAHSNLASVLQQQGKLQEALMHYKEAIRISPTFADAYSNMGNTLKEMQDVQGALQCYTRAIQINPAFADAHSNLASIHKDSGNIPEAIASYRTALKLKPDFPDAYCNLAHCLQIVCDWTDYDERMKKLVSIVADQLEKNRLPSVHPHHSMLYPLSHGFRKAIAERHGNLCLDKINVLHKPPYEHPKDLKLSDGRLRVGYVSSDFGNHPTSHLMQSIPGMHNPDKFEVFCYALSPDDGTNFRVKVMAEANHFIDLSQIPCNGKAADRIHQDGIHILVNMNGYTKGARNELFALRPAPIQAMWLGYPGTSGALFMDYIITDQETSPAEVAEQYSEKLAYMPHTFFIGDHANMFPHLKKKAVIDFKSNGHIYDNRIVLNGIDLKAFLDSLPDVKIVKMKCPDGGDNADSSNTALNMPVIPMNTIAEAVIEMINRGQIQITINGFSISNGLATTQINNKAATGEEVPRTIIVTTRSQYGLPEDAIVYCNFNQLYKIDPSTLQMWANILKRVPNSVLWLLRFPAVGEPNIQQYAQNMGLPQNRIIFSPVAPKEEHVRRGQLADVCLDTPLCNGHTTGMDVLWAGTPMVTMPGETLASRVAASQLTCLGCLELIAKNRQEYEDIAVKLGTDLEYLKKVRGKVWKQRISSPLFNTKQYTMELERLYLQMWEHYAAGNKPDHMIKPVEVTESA
Sequence of proteins of U3A human fibrosarcoma cells (4462 proteins detected) (Homo sapiens, UniProt P49915) (P49915 whole entry): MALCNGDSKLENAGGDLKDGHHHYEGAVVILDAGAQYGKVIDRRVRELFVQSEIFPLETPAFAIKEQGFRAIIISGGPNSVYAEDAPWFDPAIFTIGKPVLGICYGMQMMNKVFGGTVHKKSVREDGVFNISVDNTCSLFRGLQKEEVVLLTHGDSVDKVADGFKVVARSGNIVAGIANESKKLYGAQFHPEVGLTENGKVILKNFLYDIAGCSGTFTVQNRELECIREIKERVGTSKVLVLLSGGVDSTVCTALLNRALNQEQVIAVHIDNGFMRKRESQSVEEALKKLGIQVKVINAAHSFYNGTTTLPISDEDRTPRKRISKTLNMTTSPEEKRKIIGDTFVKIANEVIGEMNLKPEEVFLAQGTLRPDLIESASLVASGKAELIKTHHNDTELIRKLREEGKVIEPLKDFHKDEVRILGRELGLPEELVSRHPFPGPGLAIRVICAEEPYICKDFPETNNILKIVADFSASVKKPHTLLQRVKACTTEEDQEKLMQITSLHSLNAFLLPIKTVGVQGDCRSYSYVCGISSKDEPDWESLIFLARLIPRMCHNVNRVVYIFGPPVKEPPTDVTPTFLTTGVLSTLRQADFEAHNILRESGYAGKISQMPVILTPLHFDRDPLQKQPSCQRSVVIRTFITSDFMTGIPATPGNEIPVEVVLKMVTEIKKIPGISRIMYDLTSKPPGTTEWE
Sequence of proteins of U3A human fibrosarcoma cells (4462 proteins detected) (Homo sapiens, UniProt Q8TF74) (Q8TF74 whole entry): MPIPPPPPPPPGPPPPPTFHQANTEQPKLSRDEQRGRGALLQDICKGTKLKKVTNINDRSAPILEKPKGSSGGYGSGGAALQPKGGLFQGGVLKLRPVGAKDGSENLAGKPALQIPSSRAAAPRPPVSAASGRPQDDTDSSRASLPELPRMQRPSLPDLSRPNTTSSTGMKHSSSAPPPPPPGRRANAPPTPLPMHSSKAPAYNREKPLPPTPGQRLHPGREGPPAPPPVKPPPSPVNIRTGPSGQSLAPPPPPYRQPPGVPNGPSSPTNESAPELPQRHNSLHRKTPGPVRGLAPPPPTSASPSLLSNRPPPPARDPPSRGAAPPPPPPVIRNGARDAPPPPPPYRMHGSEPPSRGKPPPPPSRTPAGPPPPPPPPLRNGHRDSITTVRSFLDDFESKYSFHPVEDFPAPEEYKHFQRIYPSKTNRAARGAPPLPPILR
Sequence of proteins of U3A human fibrosarcoma cells (4462 proteins detected) (Homo sapiens, UniProt Q8NB16) (Q8NB16 whole entry): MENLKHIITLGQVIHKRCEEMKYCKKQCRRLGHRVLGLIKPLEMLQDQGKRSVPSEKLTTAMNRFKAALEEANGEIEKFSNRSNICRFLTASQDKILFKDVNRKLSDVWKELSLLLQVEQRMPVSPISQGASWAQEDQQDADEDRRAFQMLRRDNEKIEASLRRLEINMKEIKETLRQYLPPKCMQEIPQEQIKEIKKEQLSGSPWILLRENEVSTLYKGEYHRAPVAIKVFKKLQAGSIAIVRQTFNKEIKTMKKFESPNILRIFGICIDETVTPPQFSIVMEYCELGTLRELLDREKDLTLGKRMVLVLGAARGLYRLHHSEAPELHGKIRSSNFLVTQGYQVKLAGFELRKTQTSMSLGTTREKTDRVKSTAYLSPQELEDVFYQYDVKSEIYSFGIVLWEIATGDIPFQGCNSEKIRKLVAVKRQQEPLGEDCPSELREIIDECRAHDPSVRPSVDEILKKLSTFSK
Sequence of proteins of U3A human fibrosarcoma cells (4462 proteins detected) (Homo sapiens, UniProt O75792) (O75792 whole entry): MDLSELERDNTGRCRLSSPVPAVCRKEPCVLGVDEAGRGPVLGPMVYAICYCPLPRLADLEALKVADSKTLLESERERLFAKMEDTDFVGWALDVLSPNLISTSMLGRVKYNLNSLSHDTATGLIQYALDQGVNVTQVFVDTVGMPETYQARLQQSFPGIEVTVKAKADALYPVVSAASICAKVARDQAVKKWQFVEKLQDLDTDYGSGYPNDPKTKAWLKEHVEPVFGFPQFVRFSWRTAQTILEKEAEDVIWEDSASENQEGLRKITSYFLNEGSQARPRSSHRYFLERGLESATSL
Sequence of proteins of U3A human fibrosarcoma cells (4462 proteins detected) (Homo sapiens, UniProt Q9UIJ7) (Q9UIJ7 whole entry): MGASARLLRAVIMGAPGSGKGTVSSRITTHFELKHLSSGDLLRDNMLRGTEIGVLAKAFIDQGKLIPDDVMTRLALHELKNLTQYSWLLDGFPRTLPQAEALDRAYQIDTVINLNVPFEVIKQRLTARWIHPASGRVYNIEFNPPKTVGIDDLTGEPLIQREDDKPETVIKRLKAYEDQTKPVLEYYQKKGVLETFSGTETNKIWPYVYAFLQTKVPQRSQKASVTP
Sequence of proteins of U3A human fibrosarcoma cells (4462 proteins detected) (Homo sapiens, UniProt Q12874) (Q12874 whole entry): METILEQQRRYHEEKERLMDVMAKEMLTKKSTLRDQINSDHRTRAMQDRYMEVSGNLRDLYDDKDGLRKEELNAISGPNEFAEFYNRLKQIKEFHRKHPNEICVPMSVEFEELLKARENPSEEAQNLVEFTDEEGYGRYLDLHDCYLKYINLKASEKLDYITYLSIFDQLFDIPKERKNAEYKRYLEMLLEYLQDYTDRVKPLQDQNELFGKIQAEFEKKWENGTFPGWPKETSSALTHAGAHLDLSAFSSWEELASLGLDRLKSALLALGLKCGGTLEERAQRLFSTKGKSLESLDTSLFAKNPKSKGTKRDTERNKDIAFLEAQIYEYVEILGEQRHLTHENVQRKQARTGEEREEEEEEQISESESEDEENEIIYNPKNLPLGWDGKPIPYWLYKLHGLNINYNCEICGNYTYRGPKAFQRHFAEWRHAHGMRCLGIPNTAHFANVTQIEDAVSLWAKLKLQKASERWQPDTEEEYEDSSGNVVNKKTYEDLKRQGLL
Sequence of proteins of U3A human fibrosarcoma cells (4462 proteins detected) (Homo sapiens, UniProt Q13641) (Q13641 32-420): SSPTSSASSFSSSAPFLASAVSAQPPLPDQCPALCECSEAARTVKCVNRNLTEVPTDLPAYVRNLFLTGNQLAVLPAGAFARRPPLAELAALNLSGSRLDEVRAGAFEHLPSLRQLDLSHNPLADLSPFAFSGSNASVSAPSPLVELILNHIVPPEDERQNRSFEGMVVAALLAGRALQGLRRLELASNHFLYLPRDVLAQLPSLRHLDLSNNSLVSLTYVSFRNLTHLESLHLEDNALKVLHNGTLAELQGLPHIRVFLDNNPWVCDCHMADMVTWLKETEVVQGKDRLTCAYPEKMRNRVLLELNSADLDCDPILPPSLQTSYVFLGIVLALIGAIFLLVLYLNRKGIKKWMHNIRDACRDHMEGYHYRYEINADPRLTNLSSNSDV
Sequence of proteins of U3A human fibrosarcoma cells (4462 proteins detected) (Homo sapiens, UniProt Q9NPF4) (Q9NPF4 whole entry): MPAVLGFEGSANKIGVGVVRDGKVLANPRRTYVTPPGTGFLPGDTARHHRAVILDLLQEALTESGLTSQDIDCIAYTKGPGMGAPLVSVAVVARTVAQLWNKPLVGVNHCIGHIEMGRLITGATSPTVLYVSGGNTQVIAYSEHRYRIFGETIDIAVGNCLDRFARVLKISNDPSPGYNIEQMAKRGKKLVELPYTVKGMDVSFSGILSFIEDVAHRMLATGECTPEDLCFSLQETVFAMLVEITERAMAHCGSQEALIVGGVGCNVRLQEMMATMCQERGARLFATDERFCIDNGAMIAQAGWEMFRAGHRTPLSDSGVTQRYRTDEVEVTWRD

## CCc1nc(N)nc(N)c1-c1ccc(Cl)cc1 [pyrimethamine]
[1]
  Log2 (PYR/DMSO): 0.19
[2]
  Log2 (PYR/DMSO): 0.14
[3]
  Log2 (PYR/DMSO): 0.14
[4]
  Log2 (PYR/DMSO): 0.16
[5]
  Log2 (PYR/DMSO): 0.14
[6]
  Log2 (PYR/DMSO): -0.05
[7]
  Log2 (PYR/DMSO): 0.17
[8]
  Log2 (PYR/DMSO): 0.16
[9]
  Log2 (PYR/DMSO), MLKL: 0.27
[10]
  Log2 (PYR/DMSO): 0.22
[11]
  Log2 (PYR/DMSO): 0.20
[12]
  Log2 (PYR/DMSO): -0.04
[13]
  Log2 (PYR/DMSO): 0.14
[14]
  Log2 (PYR/DMSO): 0.15
[15]
  Log2 (PYR/DMSO): 0.15
[16]
  Log2 (PYR/DMSO): -0.04
[17]
  Log2 (PYR/DMSO), IFT22: -0.16
[18]
  Log2 (PYR/DMSO): 0.16
[19]
  Log2 (PYR/DMSO): 0.14
[20]
  Log2 (PYR/DMSO), IQCB1: -0.16
[21]
  Log2 (PYR/DMSO): 0.18
[22]
  Log2 (PYR/DMSO): 0.17
[23]
  Log2 (PYR/DMSO): 0.19
[24]
  Log2 (PYR/DMSO): 0.19
[25]
  Log2 (PYR/DMSO), SMC5: 0.30
[26]
  Log2 (PYR/DMSO): 0.14
[27]
  Log2 (PYR/DMSO): 0.16
[28]
  Log2 (PYR/DMSO): 0.16
[29]
  Log2 (PYR/DMSO): 0.15

Source: publication PMC8800111 (The Journal of Biological Chemistry, 2021)
